The target in experiment [1] is Alpha adrenergic receptor (1a and 1d) (Homo sapiens) (UniProt P35348+P25100). The experiment can be described thus: Ratio of binding affinity of compound to human adrenergic receptor alpha-1d to that of human adrenergic receptor alpha-1a. It counts as protein assay.
In experiment [2] the target is T1, Alpha-1B adrenergic receptor (Homo sapiens, UniProt P35368).
T1 sequence (P35368 whole entry): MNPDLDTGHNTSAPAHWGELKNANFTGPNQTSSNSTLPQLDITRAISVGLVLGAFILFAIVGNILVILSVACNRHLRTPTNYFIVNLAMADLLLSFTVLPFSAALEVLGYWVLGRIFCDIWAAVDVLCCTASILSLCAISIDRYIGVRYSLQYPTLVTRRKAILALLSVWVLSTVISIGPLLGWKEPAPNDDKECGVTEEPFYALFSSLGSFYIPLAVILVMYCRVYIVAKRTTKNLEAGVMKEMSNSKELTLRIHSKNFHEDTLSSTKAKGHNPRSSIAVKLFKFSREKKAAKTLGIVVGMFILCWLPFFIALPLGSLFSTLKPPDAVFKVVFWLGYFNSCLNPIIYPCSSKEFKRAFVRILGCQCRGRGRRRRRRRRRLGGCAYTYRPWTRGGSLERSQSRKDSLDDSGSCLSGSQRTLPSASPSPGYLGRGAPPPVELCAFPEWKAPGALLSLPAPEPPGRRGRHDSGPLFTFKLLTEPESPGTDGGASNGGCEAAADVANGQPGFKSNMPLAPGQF
The experiment can be described thus: Compound was evaluated for its binding affinity towards COS cell membrane expressing the human Alpha-1B adrenergic receptor. It counts as cell membranes.

For experiment [3], the target named is T2, Alpha-1D adrenergic receptor (Homo sapiens, UniProt P25100).
T2 sequence (P25100 whole entry): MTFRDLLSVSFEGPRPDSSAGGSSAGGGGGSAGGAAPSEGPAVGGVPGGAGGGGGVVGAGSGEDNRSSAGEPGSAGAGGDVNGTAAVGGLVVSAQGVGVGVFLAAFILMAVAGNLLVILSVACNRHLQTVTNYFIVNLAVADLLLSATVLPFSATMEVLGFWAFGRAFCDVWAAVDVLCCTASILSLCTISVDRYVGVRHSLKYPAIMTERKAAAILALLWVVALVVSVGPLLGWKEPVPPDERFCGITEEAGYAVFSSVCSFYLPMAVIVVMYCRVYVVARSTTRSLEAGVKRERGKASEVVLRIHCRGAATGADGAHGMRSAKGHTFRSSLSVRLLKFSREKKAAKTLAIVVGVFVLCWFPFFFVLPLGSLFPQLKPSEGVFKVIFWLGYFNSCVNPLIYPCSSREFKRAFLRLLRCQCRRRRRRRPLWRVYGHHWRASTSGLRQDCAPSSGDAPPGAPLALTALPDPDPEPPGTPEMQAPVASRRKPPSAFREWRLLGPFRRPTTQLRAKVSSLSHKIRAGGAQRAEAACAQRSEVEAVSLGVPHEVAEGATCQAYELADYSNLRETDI
Nature of the experiment: Compound was evaluated for its binding affinity to COS cell membrane expressing the human Alpha-1D adrenergic receptor. It counts as cell membranes.

Experiment [4] deals with Adrenergic receptors; alpha-1 A & B (Homo sapiens) (UniProt P35348+P35368). Nature of the experiment: Ratio of binding affinity of compound to human adrenergic receptor alpha-1b to that of human adrenergic receptor alpha-1a. It counts as protein assay.
In experiment [5] the target is T3, Alpha-1A adrenergic receptor (Homo sapiens, UniProt P35348).
T3 sequence (P35348 whole entry): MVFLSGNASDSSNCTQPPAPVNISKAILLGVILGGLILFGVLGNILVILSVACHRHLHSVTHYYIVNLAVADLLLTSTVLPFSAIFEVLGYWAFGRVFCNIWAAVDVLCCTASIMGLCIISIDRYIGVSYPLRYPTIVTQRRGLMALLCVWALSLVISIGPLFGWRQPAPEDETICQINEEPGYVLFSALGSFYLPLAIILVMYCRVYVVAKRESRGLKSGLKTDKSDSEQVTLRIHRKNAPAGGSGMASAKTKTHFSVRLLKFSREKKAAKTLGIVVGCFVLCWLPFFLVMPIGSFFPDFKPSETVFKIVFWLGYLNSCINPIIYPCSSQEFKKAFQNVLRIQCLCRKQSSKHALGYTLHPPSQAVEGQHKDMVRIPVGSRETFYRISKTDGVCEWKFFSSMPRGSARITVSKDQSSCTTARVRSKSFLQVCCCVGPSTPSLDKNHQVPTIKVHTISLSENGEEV
Nature of the experiment: Compound was evaluated for its binding affinity to COS cell membrane expressing the human Alpha-1A adrenergic receptor. Format: cell membranes.

For orientation: Ki means the dissociation constant of the complex between target and ligand, obtained from inhibition or displacement. A low value points to higher affinity.

Molecules are shown by their SMILES.

Regarding `CC(C)Oc1ccccc1N1CCN(Cc2cc(CN3CCCCC3=O)on2)CC1`, the Ratio in experiment [1] was found to be 72; in experiment [4], 1170. Moreover, the Ki in experiment [2] came to 4460 nM; in experiment [3] it was 272 nM; in experiment [5], 3.8 nM.
For `CC(C)Oc1ccccc1N1CCN(Cc2cc(CN3CCCCC3=O)nc(N)n2)CC1` the same measures were more than 127, more than 127, more than 10000 nM, more than 10000 nM and 79 nM.
For `CC(C)Oc1ccccc1N1CCN(Cc2cc(CN3CCCCC3=O)n(C)n2)CC1` the same measures were 14, 832, 3080 nM, 52 nM and 3.7 nM.
For `CC(C)Oc1ccccc1N1CCN(CC2=NOC(CN3CCCCC3=O)C2)CC1` (stereo not given) the same measures were 17, more than 112, more than 10000 nM, 1520 nM and 89 nM.
Turning to `CC(C)Oc1ccccc1N1CCN(Cc2cc(CN3CCCCC3=O)n[nH]2)CC1`, the values for the Ratio in experiment [1] and in experiment [4] were 84 and 1860, respectively. The Ki in experiment [2] came to 3920 nM; in experiment [3] it was 177 nM; in experiment [5], 2.1 nM.
For `CC(C)Oc1ccccc1N1CCN(Cc2cc(CN3CCCCC3=O)nn2C)CC1` the same measures were 5, 308, 2770 nM, 44 nM and 9 nM.

The values are drawn from ChEMBL document CHEMBL1132787, “Novel heterocycles as selective alpha1-adrenergic receptor antagonists” (Bioorg Med Chem Lett, 2000).
